Measurements published in US9656953B2, “Inhibition of cell proliferation” (University of South Florida, priority 2005, dated 2017).
Where two headings read alike, the source gives them in different places.

Columns and labels:
[1] = tested on: Rb phosphorylation (serines 807 and 811); test: Western blot of Rb phosphorylation, A549 cells; assay type: cell-based, human; conditions: cells treated 18 hours, western blotting
From the text: Lysate preparation, pmmunoprecipitation, and pestern plotting.

Rb:Raf-1 binding = molecular target: T1, Rb:Raf-1 binding (Homo sapiens, UniProt P04049+P06400); test: GST-Rb/GST-Raf-1 ELISA; conditions: for inhibition at 20 µM / % Inhibition at 20 μM: inhibition of Rb:Raf-1 binding, compound at 20 μM; for inhibition at 20 µM: read-out: % Inhibition at 20 μM; for fold less active compared to 3a: IC50 ratio to 3a; for Rb:Raf-1 binding inhibitory activity in words: ELISA
T1 construct: a glutathione S-transferase (GST) Raf-1 (1-149aa) overnight at 4° C; made in house
T1 sequence (P04049 1-149 limits assumed): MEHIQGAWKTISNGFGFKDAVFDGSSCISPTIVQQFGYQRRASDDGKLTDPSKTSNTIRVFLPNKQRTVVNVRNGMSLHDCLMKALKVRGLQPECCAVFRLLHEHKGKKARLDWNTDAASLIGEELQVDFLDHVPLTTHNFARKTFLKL
T1 sequence (P06400 whole entry): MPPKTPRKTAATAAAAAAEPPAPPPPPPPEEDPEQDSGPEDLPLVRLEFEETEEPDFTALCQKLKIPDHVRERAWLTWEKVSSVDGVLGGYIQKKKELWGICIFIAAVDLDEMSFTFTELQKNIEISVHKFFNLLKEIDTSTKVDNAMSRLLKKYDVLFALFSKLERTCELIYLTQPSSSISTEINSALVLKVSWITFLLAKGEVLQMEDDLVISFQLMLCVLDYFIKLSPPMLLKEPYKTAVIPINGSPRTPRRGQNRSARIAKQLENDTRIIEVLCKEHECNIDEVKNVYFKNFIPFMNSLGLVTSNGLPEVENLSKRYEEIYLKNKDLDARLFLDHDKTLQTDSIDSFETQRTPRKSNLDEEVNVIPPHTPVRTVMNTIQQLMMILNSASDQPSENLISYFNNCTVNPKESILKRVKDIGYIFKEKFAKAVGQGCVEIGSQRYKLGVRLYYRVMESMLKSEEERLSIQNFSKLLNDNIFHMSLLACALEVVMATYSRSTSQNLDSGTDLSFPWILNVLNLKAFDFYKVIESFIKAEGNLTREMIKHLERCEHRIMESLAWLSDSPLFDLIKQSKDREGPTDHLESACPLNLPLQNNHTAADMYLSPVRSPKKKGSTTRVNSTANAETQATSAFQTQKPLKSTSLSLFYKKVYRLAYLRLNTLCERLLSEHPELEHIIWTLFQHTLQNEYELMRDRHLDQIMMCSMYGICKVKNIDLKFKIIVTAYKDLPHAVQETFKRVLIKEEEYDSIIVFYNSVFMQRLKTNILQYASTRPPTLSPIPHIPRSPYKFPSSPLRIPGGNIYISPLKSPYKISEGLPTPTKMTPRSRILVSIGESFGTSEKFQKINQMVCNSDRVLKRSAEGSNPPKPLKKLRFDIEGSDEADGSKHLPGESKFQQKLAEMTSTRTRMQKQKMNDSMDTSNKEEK
Protocol: In vitro library screening assays. Enzyme Linked ImmunoSorbent Assay (ELISA) 96-well plates were coated with 1 μg/mL of a glutathione S-transferase (GST) Raf-1 (1-149aa) overnight at 4° C. Subsequently the plates were blocked and GST Rb at 20 μg/mL was rotated at room temperature (RT) for 30 minutes in the presence or absence of the compounds at 20 micromolar (μM). GST-Rb +/− compounds were then added to the plate and incubated for 90 minutes (min) at 37° C. The amount of Rb bound to Raf-1 was detected by Rb polyclonal antibody (Santa Cruz Biotechnology, Santa Cruz, Calif.) 1:1000 incubated for 60 min at 37° C. Donkey-anti-rabbit-IgG-HRP (1:10,000) was added to the plate and incubated at 37° C. for 60 minutes. The color was developed with orthophenylenediamine (Sigma, St. Louis, Mo.) and the reaction was terminated with 3 molar (M) H2SO4. Absorbance was read at 490 nanometers (nm). To determine disruption of Rb to E2F1, Phb, or HDAC1 the above protocol was used with the exception of coating GST Rb on the ELISA plate and adding the drugs in the presence or absence of GST E2F1, Phb, or HDAC1. […] Prohibitin monoclonal antibody was used at 1:1000 to detect the amount of Rb bound to Prohibitin. For disruption of MEK-Raf-1 binding ELISAs, Raf-1 1 microgram/milliliter (μg/mL) was coated on the plate and GST-MEK (20 μg/mL) was incubated +/− the compounds for 30 minutes at room temperature. Mek1 polyclonal antibody was used at 1:1000 to detect the binding of Raf-1 to Mek1. The IC50 concentrations for the Rb:Raf-1 inhibitors were determined by plotting with Origin 7.5 software (Origin, Northampton, Mass.).
A screen was developed to identify small molecule inhibitors of the Rb:Raf-1 interaction. A diversity set, comprising 1981 compounds (National Cancer Institute, Bethesda, Md.) was examined using a glutathione S-transferase-retinoblastoma/glutathione S-transferase-Raf-1 kinase Enzyme-Linked ImmunoSorbent Assay screen (GST-Rb/GST-Raf-1 ELISA).

[2] = values in μM, read-out: IC50, Rb:Raf-1 binding
[3] = concentration that inhibits the Rb:Raf-1 binding by 50%, triplicate, read-out: IC50 (nM), inhibition of the Rb:Raf-1 binding

| SMILES | inhibition at 20 µM (Rb:Raf-1 binding) [%] | other results |
| --- | --- | --- |
| CNC(=O)c1cc(Oc2ccc(NC(=O)Nc3ccc(Cl)c(C(F)(F)F)c3)cc2)ccn1 [BAY43-9006, sorafenib, reference compound] |  | Rb phosphorylation [1]: did not seem to have any effect on Rb phosphorylation |
| N=C(N)SCc1ccccc1Cl [Compound 3b, 2-chlorobenzylisothiourea] | 100 | IC50 (Rb:Raf-1 binding; [2]): 0.575 µM |
| N=C(N)SCc1ccc(Cl)c(F)c1 [Compound 3c] | 100 | IC50 (Rb:Raf-1 binding; [2]): 0.081 µM |
| Cl.N=C(N)SCc1cccc(Cl)c1Cl [Compound 3d] | 100 | fold less active compared to 3a (Rb:Raf-1 binding): more than 2 fold; IC50 (Rb:Raf-1 binding; [3]): 0.164 µM |
| N=C(N)SCc1cccc(Cl)c1 [Compound 3e, 3-chlorobenzylisothiourea] | 100 | IC50 (Rb:Raf-1 binding; [2]): 0.23 µM |
| N=C(N)SCc1ccc(Cl)c(C(F)(F)F)c1 [Compound 3f] | 94 | IC50 (Rb:Raf-1 binding; [2]): 0.312 µM |
| N=C(N)SCc1ccc(Cl)cc1 [Compound 3g, 4-chlorobenzylisothiourea] | 88 | IC50 (Rb:Raf-1 binding; [3]): 0.274 µM |
| Cl.N=C(N)SCc1ccc(Cl)c(Cl)c1 [Compound 3h] | 81 | fold less active compared to 3a (Rb:Raf-1 binding): 50 fold; IC50 (Rb:Raf-1 binding; [3]): 3.9 µM |
| N=C(N)SCc1cc(Cl)ccc1Cl [Compound 3i] | 79 | IC50 (Rb:Raf-1 binding; [3]): 2.11 ± 0.18 µM |
| N=C(N)SCc1ccc(C(F)(F)F)cc1C(F)(F)F [Compound 3j] | 53 |  |
| CC(C)(C)c1ccc(CSC(=N)N)cc1 [Compound 3k] | 52 |  |
| N=C(N)SCc1ccc2c(c1)OCO2 [Compound 3l] | 49 |  |
| N=C(N)SCc1ccc([N+](=O)[O-])cc1 [Compound 3m] | 46 |  |
| N=C(N)SCc1ccc(C(F)(F)F)cc1 [Compound 3n] | 46 |  |
| COc1ccc(CSC(=N)N)cc1 [Compound 3o] | 45 |  |
| Cc1ccc(CSC(=N)N)cc1 [Compound 3p] | 44 |  |
| COc1cc(CSC(=N)N)cc(OC)c1OC [Compound 3q] | 20 |  |
| Cl.N=C(N)SCc1ccccc1 [Compound 3r] | 0 | Rb:Raf-1 binding inhibitory activity in words (Rb:Raf-1 binding): inactive |
| Cl.N=C(N)SCc1c(Cl)cccc1Cl [Compound 3s] | 0 | Rb:Raf-1 binding inhibitory activity in words (Rb:Raf-1 binding): inactive |
| Cl.N=C(N)SCc1c(Cl)cc(Cl)cc1Cl [Compound 3t] | 0 | Rb:Raf-1 binding inhibitory activity in words (Rb:Raf-1 binding): inactive |

| SMILES | inhibition at 20 µM (Rb:Raf-1 binding) [%] | other results |
| --- | --- | --- |
| CC(SC(=N)N)c1ccc(Cl)cc1Cl (centres unmarked) [Compound 4a] | 100 | IC50 (Rb:Raf-1 binding; [3]): 0.322 µM |
| CC(SC(=N)N)c1ccc(Cl)c(Cl)c1 (centres unmarked) [Compound 4b] | 99 | IC50 (Rb:Raf-1 binding; [3]): 0.51 ± 0.116 µM |
| CCC(SC(=N)N)c1ccc(Cl)cc1Cl (centres unmarked) [Compound 4c] | 100 | IC50 (Rb:Raf-1 binding; [3]): 0.567 µM |
| N=C(N)SC(c1ccccc1)c1ccccc1 [Compound 4d] | 21 |  |
| N=C(N)SC(Cc1ccccc1)c1ccc(Cl)cc1Cl (centres unmarked) [Compound 4e] | 32 |  |
| N=C(N)SCc1ccc2ccccc2c1Br [Compound 5a] | 100 | IC50 (Rb:Raf-1 binding; [3]): 0.08 µM |
| N=C(N)SCc1ccncc1 [Compound 5b] | 94 | IC50 (Rb:Raf-1 binding; [3]): 2.63 ± 0.33 µM |
| Cl.N=C(N)SCc1ccc(Cl)c2ccccc12 [Compound 5c] |  | IC50 (Rb:Raf-1 binding; IC50 (nM), inhibition of the Rb:Raf-1 binding, concentration that inhibits the Rb:Raf-1 binding by 50%, triplicate): 1.9 µM; fold reduction of activity relative to 5a (Rb:Raf-1 binding; IC50 ratio to 5a): 24 fold; % Inhibition at 20 μM (Rb:Raf-1 binding): 93% |
| N=C(N)SCc1ccc2ccccc2n1 [Compound 5d] | 76 |  |
| N=C(N)SCc1ccc2c(c1)C(=O)c1ccccc1C2=O [Compound 5e] | 56 |  |
| N=C(N)SCc1c2ccccc2cc2ccccc12 [Compound 5f] | 22 |  |
| N=C(N)NCc1ccc(Cl)cc1 [Compound 6a] |  | IC50 (Rb:Raf-1 binding; [3]): 0.539 µM; % Inhibition at 20 μM (Rb:Raf-1 binding; 20 µM): 100% |
| Cl.N=C(N)NCc1ccc(Cl)cc1 [Compound 6b] |  | % Inhibition at 20 μM (Rb:Raf-1 binding): 61% |
| N=C(N)NCc1ccc(Cl)cc1Cl [Compound 6c] | 61 |  |
| Cl.N=C(N)NCc1ccccc1Cl [Compound 6d] |  | % Inhibition at 20 μM (Rb:Raf-1 binding): 59% |
| N=C(N)NCc1ccccc1Cl [Compound 6e] |  | % Inhibition at 20 μM (Rb:Raf-1 binding): 25% |
| N=C(N)NCc1ccc(Cl)cc1 [Compound 6f] |  | % Inhibition at 20 μM (Rb:Raf-1 binding; 20 µM): 16% |
| CNc1nc(-c2ccc(F)cc2F)cs1 [Compound 7a] | 53 |  |
| Nc1nc(-c2ccc(Cl)cc2Cl)cs1 [Compound 7b] | 45 |  |
| CNc1nc(-c2ccc(F)cc2)cs1 [Compound 7c] | 43 |  |

| SMILES | inhibition at 20 µM (Rb:Raf-1 binding) [%] | other results |
| --- | --- | --- |
| CNc1nc(-c2ccccc2)cs1 [Compound 7d] | 39 |  |
| Nc1nc(-c2ccc(F)cc2F)cs1 [Compound 7e] | 39 |  |
| CNc1nc(-c2ccc(Cl)cc2)cs1 [Compound 7f] | 34 |  |
| CNc1nc(-c2ccc(Cl)cc2Cl)cs1 [Compound 7g] | 33 |  |
| Nc1nc(-c2ccc(F)cc2)cs1 [Compound 7h] | 32 |  |
| Nc1nc(-c2ccc(Cl)cc2)cs1 [Compound 7i] | 29 |  |
| Nc1nc(-c2ccccc2)cs1 [Compound 7j] | 22 |  |
| CNc1scc(-c2ccc(Cl)cc2)[n+]1C [Compound 8a] | 37 |  |
| CNc1scc(-c2ccccc2)[n+]1C [Compound 8b] | 22 |  |
| CNc1scc(-c2ccc(F)cc2)[n+]1C [Compound 8c] | 19 |  |
| CNc1scc(-c2ccc(F)cc2F)[n+]1C [Compound 8d] | 5 |  |
| Clc1ccc(CSc2nnc[nH]2)c(Cl)c1 [Compound 9a] | 92 | IC50 (Rb:Raf-1 binding; [3]): 0.097 µM |
| Nc1nnc(SCc2ccc(Cl)cc2Cl)[nH]1 [Compound 9b] | 91 | IC50 (Rb:Raf-1 binding; [3]): 0.131 µM |
| Clc1ccc(CSc2nnc[nH]2)cc1 [Compound 9c] | 81 |  |
| Nc1nnc(SCc2ccc(Cl)cc2)[nH]1 [Compound 9d] | 76 |  |
| Clc1ccc(CSc2ncc[nH]2)c(Cl)c1 [Compound 9e] | 68 |  |
| Clc1ccc(CSc2ncc[nH]2)cc1 [Compound 9f] | 67 |  |
| Clc1ccc(CSC2=NCCN2)cc1 [Compound 9g] | 47 |  |
| Clc1ccc(CSC2=NCCN2)c(Cl)c1 [Compound 9i] | 45 |  |
| Clc1ccc(CSc2nc3ccccc3[nH]2)c(Cl)c1 [Compound 9j] | 40 |  |
